Several values for one entry are separate records, joined by “and”; a condition that tells them apart may be missing. Equal values may be shown once.
Legend:
[1] = system: cat fleas (Ctenocephalides felis); test: Adult fleas fed on artificial membranes with spiked blood (Example 1); conditions: 48 hr continuous feeding
Experimental: Adult fleas (20-30) were fed on artificial membranes with blood spiked with Compound 10-1, Compound 11-1, or a positive control (fipronil) at a concentration of 100, 10, or 1 ppm. Flea efficacy was assessed after 48 hr of continuous feeding by comparing the number of killed and damaged fleas with the number of fed fleas. Flea efficacy was 100% for Compound 10-1, Compound 11-1, and fipronil at 100, 10, and 1 ppm.

adult fleas (C. felis) = test: Efficacy against fleas on mice (Example 2A); type: in vivo, Ctenocephalides felis
Experimental: (§1) Mice were divided into groups of three, and treated topically with 100 ppm body weight, orally with 10 mg/kg bodyweight, or subcutaneously with 10 mg/kg bodyweight of Compound 11-1, fipronil (positive control), or nothing (negative control). These mice were sedated and infested with adult fleas (C. felis) 1, 3, 6, and 24 hr after treatment. Fleas were recovered from the mice after approximately 30 minutes of feeding. The assessment of flea inhibition (% of dead and damaged fleas) was conducted 1 and 24 hr after each infestation.

M. musculinus = test: Efficacy against mites on mice (Example 2B); type: in vivo, Myocoptes musculinus; design: key: “+”=low infestation rate; “++”=medium infestation rate; “+++”=high infestation rate; conditions: repeated 7 days later
Experimental: The mice were divided into groups of three, and treated topically with 100 ppm body weight, orally with 10 mg/kg body weight, or subcutaneously with 10 mg/kg body weight of Compound 11-1, fipronil (positive control), or nothing (negative control). This treatment was then repeated 7 days later. The infestation rate per mouse (“+”=low infestation rate, “++”=medium infestation rate, “+++”=high infestation rate) was assessed repeatedly on days 1, 6, 9, 13, and 23. Efficacy was defined as the inhibition of the mite infestation rate on treated mice relative to the negative control group.

[2] = system: juvenile soft ticks (O. moubata); test: Efficacy against soft (Argaside) ticks on Guinea pigs (Example 2C); type: in vivo, Ornithodoros moubata; conditions: Guinea pig, up to Day 50
Experimental: (§2) Six Guinea pigs were treated orally, subcutaneously, or intraperitoneally with 10 mg/kg bodyweight of Compound 11-1 or fipronil (positive control). The Guinea pigs were locally co-infested with juvenile soft ticks (O. moubata) and bed bugs (C. lectularius) once before the treatment, and at different time points after treatment between days 2 and 50. Ten engorged ticks/bed bugs were collected to assess the percentage of killed individuals per species 24 hr after each infestation.
(§3) For Guinea pigs treated with Compound 11-1, the ticks and bed bugs died within 1 to 5 hr following infestation up to Day 29, and within 8 to 24 hr after day 29. For Guinea pigs treated with fipronil, ticks and bed bugs died within 1 to 7 hr after infestation up to Day 29, and within 8 to 24 hr after day 29.

[3] = system: bed bugs (C. lectularius); test: Efficacy against bed bugs on Guinea pigs (Example 2C); type: in vivo, Cimex lectularius; conditions: Guinea pig
Experimental: as §2, §3

[4] = system: brown dog ticks, R. sanguineus (nymphs); test: Efficacy against hard (Ixodide) ticks on Guinea pigs (Example 2D); type: in vivo, Rhipicephalus sanguineus; conditions: all treated groups of Study 1 (100 ppm dip, 10 mg/kg oral, 10 mg/kg subcutaneous) and Study 2 (25 ppm dip, 2.5 mg/kg oral, 2.5 mg/kg subcutaneous), Day 4 to Day 8
Experimental: (§4) Guinea pigs were divided into groups of three. Each group was subjected to one of the following treatments with either Compound 11-1, fipronil (positive control), or neither (negative control):
(§5) • 1. 100 ppm body weight topical administration by animal dip • 2. 10 mg/kg body weight oral administration • 3. 10 mg/kg body weight subcutaneous administration • 4. No treatment (negative control)
(§6) • 1. 25 ppm body weight topical administration by animal dip • 2. 2.5 mg/kg body weight oral administration • 3. 2.5 mg/kg body weight subcutaneous administration • 4. No treatment (negative control) One day before the treatment, all the Guinea pigs were infested with 100 vital juvenile (“nymph”) hard ticks (brown dog ticks, R. sanguineus). Engorged, detached nymphs were counted (eN) from Day 4 to Day 8 to calculate the efficacy of the treatments according to following formula: […]
In addition, collected ticks were assessed for molting into the next stage.

[5] = Side effects in mice, flea study (Example 2A); type: in vivo; conditions: topical 100 ppm, oral or subcutaneous 10 mg/kg
Experimental: as §1

[6] = Side effects in Guinea pigs, soft tick and bed bug study (Example 2C); type: in vivo; conditions: Guinea pigs; oral, subcutaneous or intraperitoneal 10 mg/kg
Experimental: as §2

[7] = Side effects in Guinea pigs, hard tick studies (Example 2D); type: in vivo; conditions: guinea pig, in vivo
Experimental: as §4, §5, §6
In the first study, 32 engorged R. sanguineus nymphs were collected from animals of the untreated negative control group. And in the second study, 75 engorged R. sanguineus nymphs were collected from animals of the untreated negative control group. […] Thus, the inhibition of engorged nymphs for both Compound 11-1 and fipronil was 100%.

N#Cc1nn(-c2c(Cl)cc(C(F)(F)F)cc2Cl)c(N)c1[S+]([O-])C(F)(F)F (centres unmarked) [fipronil, reference compound]
Flea efficacy ([1]; blood spiked at 1 ppm): 100%
Flea efficacy ([1]; blood spiked at 10 ppm): 100%
Flea efficacy ([1]; blood spiked at 100 ppm): 100%
Flea inhibition (% of dead and damaged fleas) (adult fleas (C. felis); oral 10 mg/kg, infested 1 hr after treatment, assessed 1 hr after infestation): 0-2%
Flea inhibition (% of dead and damaged fleas) (adult fleas (C. felis); oral 10 mg/kg, infested 1 hr after treatment, assessed 24 hr after infestation): 3.3%
Flea inhibition (% of dead and damaged fleas) (adult fleas (C. felis); oral 10 mg/kg, infested 3 hr after treatment, assessed 1 hr after infestation): 0-2%
Flea inhibition (% of dead and damaged fleas) (adult fleas (C. felis); oral 10 mg/kg, infested 3 hr after treatment, assessed 24 hr after infestation): 12.3%
Flea inhibition (% of dead and damaged fleas) (adult fleas (C. felis); oral 10 mg/kg, infested 6 hr after treatment, assessed 1 hr after infestation): 0-2%
Flea inhibition (% of dead and damaged fleas) (adult fleas (C. felis); oral 10 mg/kg, infested 6 hr after treatment, assessed 24 hr after infestation): 6.7%
Flea inhibition (% of dead and damaged fleas) (adult fleas (C. felis); oral 10 mg/kg, infested 24 hr after treatment, assessed 1 hr after infestation): 0-2%
Flea inhibition (% of dead and damaged fleas) (adult fleas (C. felis); oral 10 mg/kg, infested 24 hr after treatment, assessed 24 hr after infestation): 7.7%
Flea inhibition (% of dead and damaged fleas) (adult fleas (C. felis); subcutaneous 10 mg/kg, infested 1 hr after treatment, assessed 1 hr after infestation): 0-2%
Flea inhibition (% of dead and damaged fleas) (adult fleas (C. felis); subcutaneous 10 mg/kg, infested 1 hr after treatment, assessed 24 hr after infestation): 1.0%
Flea inhibition (% of dead and damaged fleas) (adult fleas (C. felis); subcutaneous 10 mg/kg, infested 3 hr after treatment, assessed 1 hr after infestation): 0-2%
Flea inhibition (% of dead and damaged fleas) (adult fleas (C. felis); subcutaneous 10 mg/kg, infested 3 hr after treatment, assessed 24 hr after infestation): 15.7%
Flea inhibition (% of dead and damaged fleas) (adult fleas (C. felis); subcutaneous 10 mg/kg, infested 6 hr after treatment, assessed 1 hr after infestation): 0-2%
Flea inhibition (% of dead and damaged fleas) (adult fleas (C. felis); subcutaneous 10 mg/kg, infested 6 hr after treatment, assessed 24 hr after infestation): 97.7%
Flea inhibition (% of dead and damaged fleas) (adult fleas (C. felis); subcutaneous 10 mg/kg, infested 24 hr after treatment, assessed 1 hr after infestation): 0-2%
Flea inhibition (% of dead and damaged fleas) (adult fleas (C. felis); subcutaneous 10 mg/kg, infested 24 hr after treatment, assessed 24 hr after infestation): 94.3%
Flea inhibition (% of dead and damaged fleas) (adult fleas (C. felis); topical 100 ppm body weight, infested 1 hr after treatment, assessed 1 hr after infestation): 0-2%
Flea inhibition (% of dead and damaged fleas) (adult fleas (C. felis); topical 100 ppm body weight, infested 1 hr after treatment, assessed 24 hr after infestation): 100%
Flea inhibition (% of dead and damaged fleas) (adult fleas (C. felis); topical 100 ppm body weight, infested 3 hr after treatment, assessed 1 hr after infestation): 0-2%
Flea inhibition (% of dead and damaged fleas) (adult fleas (C. felis); topical 100 ppm body weight, infested 3 hr after treatment, assessed 24 hr after infestation): 94.3%
Flea inhibition (% of dead and damaged fleas) (adult fleas (C. felis); topical 100 ppm body weight, infested 6 hr after treatment, assessed 1 hr after infestation): 0-2%
Flea inhibition (% of dead and damaged fleas) (adult fleas (C. felis); topical 100 ppm body weight, infested 6 hr after treatment, assessed 24 hr after infestation): 100%
Flea inhibition (% of dead and damaged fleas) (adult fleas (C. felis); topical 100 ppm body weight, infested 24 hr after treatment, assessed 1 hr after infestation): 0-2%
Flea inhibition (% of dead and damaged fleas) (adult fleas (C. felis); topical 100 ppm body weight, infested 24 hr after treatment, assessed 24 hr after infestation): 76.7%
Mite infestation rate per mouse (M. musculinus; oral 10 mg/kg, Day 1): +++
Mite infestation rate per mouse (M. musculinus; oral 10 mg/kg, Day 6): ++ to +++
Mite infestation rate per mouse (M. musculinus; oral 10 mg/kg, Day 9): ++ to +++
Mite infestation rate per mouse (M. musculinus; oral 10 mg/kg, Day 13): +
Mite infestation rate per mouse (M. musculinus; oral 10 mg/kg, Day 23): +
Mite infestation rate per mouse (M. musculinus; subcutaneous 10 mg/kg, Day 1): +++
Mite infestation rate per mouse (M. musculinus; subcutaneous 10 mg/kg, Day 6): 2 mice: + to ++ and 1 mouse: +++
Mite infestation rate per mouse (M. musculinus; subcutaneous 10 mg/kg, Day 9): 2 mice: + to ++ and 1 mouse: +++
Mite infestation rate per mouse (M. musculinus; subcutaneous 10 mg/kg, Day 13): +
Mite infestation rate per mouse (M. musculinus; subcutaneous 10 mg/kg, Day 23): + to ++
Mite infestation rate per mouse (M. musculinus; topical 100 ppm body weight, Day 1): 2 mice: + to ++ and 1 mouse: +++ (all
Mite infestation rate per mouse (M. musculinus; topical 100 ppm body weight, Day 6): + to ++
Mite infestation rate per mouse (M. musculinus; topical 100 ppm body weight, Day 9): 2 mice: none and 1 mouse: +
Mite infestation rate per mouse (M. musculinus; topical 100 ppm body weight, Day 13): none
Mite infestation rate per mouse (M. musculinus; topical 100 ppm body weight, Day 23): none
Efficacy against soft ticks (killed 24 hr after infestation) ([2]; intraperitoneal 10 mg/kg): 100% efficacy was observed up to Day 50.
Efficacy against soft ticks (killed 24 hr after infestation) ([2]; oral 10 mg/kg): 100% efficacy was observed up to Day 50.
Efficacy against soft ticks (killed 24 hr after infestation) ([2]; subcutaneous 10 mg/kg): 100% efficacy was observed up to Day 50.
Efficacy against bed bugs (killed 24 hr after infestation) ([3]; intraperitoneal 10 mg/kg, up to Day 18): 100% efficacy was observed up to Day 18.
Efficacy against bed bugs (killed 24 hr after infestation) ([3]; oral 10 mg/kg, up to Day 18): 100% efficacy was observed up to Day 18.
Efficacy against bed bugs (killed 24 hr after infestation) ([3]; subcutaneous 10 mg/kg, on Day 37): up to Day 35. 50% efficacy was observed
Engorged R. sanguineus nymphs collected [4]: no nymphs were collected
Inhibition of engorged nymphs [4]: 100%
Side effects [5]: No side effects were observed
Side effects [6]: No side effects were observed
Side effects [7]: No side effects were observed

Source: US20240239759A1, “ISOXAZOLINE COMPOSITIONS AND THEIR USE AS ANTIPARASITICS” (Intervet Inc., priority 2007, published 2024)
